# PubChem BioAssay AID2060605 (Molecular Pharmacology Branch, DTP, NCI, 2025)
# Test system: 947758-054-R-J2-PDC spheroid growth, percent test/control
# Assay: Anticancer human tumor 947758-054-R-J2-PDC patient-derived colon adenocarcinoma cell line growth inhibition [CLK]
# Conditions: spheroids with HUVEC and MSC; for IC50: curve of first compound; for viability, T/C: stronger effect = lower value
# Procedure, shortened: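 Multi-cell-type spheroids combined patient-derived tumor cells with HUVEC endothelial cells and human mesenchymal stem cells. Paired agents were dosed in half-log steps down from about clinical Cmax, or from 10 microM where Cmax was unknown.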
# [1] = second compound 0.0316 µM, first compound 0.0316 µM
# [2] = second compound 0.0316 µM, first compound 0.1 µM
# [3] = second compound 0.0316 µM, first compound 0.316 µM
# [4] = second compound 0.0316 µM, first compound 1 µM
# [5] = second compound 0.1 µM, first compound 0.0316 µM
# [6] = second compound 0.1 µM, first compound 0.1 µM
# [7] = second compound 0.1 µM, first compound 0.316 µM
# [8] = second compound 0.1 µM, first compound 1 µM
# [9] = second compound 0.316 µM, first compound 0.0316 µM
# [10] = second compound 0.316 µM, first compound 0.1 µM
# [11] = second compound 0.316 µM, first compound 0.316 µM
# [12] = second compound 0.316 µM, first compound 1 µM
# [13] = second compound 1 µM, first compound 0.0316 µM
# [14] = second compound 1 µM, first compound 0.1 µM
# [15] = second compound 1 µM, first compound 0.316 µM
# [16] = second compound 1 µM, first compound 1 µM
# [17] = second compound 3.16 µM, first compound 0.0316 µM
# [18] = second compound 3.16 µM, first compound 0.1 µM
# [19] = second compound 3.16 µM, first compound 0.316 µM
# [20] = second compound 3.16 µM, first compound 1 µM
# [21] = second compound 10 µM, first compound 0.0316 µM
# [22] = second compound 10 µM, first compound 0.1 µM
# [23] = second compound 10 µM, first compound 0.316 µM
# [24] = second compound 10 µM, first compound 1 µM
# [25] = second compound 0.0316 µM, first compound 3.16 µM
# [26] = second compound 0.0316 µM, first compound 10 µM
# [27] = second compound 0.1 µM, first compound 3.16 µM
# [28] = second compound 0.1 µM, first compound 10 µM
# [29] = second compound 0.316 µM, first compound 3.16 µM
# [30] = second compound 0.316 µM, first compound 10 µM
# [31] = second compound 1 µM, first compound 3.16 µM
# [32] = second compound 1 µM, first compound 10 µM
# [33] = second compound 3.16 µM, first compound 3.16 µM
# [34] = second compound 3.16 µM, first compound 10 µM
# [35] = second compound 10 µM, first compound 3.16 µM
# [36] = second compound 10 µM, first compound 10 µM
# 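Also: spheroids exposed to compounds for one week before readout.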
# 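For viability, T/C in this document: 100% = DMSO vehicle control wells.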
compound,measurement,setting,value
CCc1c2c(nc3ccc(O)cc13)-c1cc3c(c(=O)n1C2)COC(=O)[C@]3(O)CC + CNC(=O)c1ccc(Nc2nc(OC3CCCC3)c3c(-c4ccc5nc(C)oc5c4)c[nH]c3n2)c(OC)c1,IC50,second compound 0.0316 µM,< 3.16 nM
same,IC50,second compound 0.1 µM,4.57 nM
same,IC50,second compound 0.316 µM,< 3.16 nM
same,IC50,second compound 1 µM,< 3.16 nM
same,IC50,second compound 3.16 µM,< 3.16 nM
same,IC50,second compound 10 µM,< 3.16 nM
same,"viability, T/C","second compound 0.0316 µM, first compound 0.00316 µM",45.2%
same,"viability, T/C","second compound 0.0316 µM, first compound 0.01 µM",30.2%
same,"viability, T/C",[1],23.5%
same,"viability, T/C",[2],17.9%
same,"viability, T/C",[3],8.37%
same,"viability, T/C",[4],1.73%
same,"viability, T/C","second compound 0.1 µM, first compound 0.00316 µM",59.9%
same,"viability, T/C","second compound 0.1 µM, first compound 0.01 µM",28.5%
same,"viability, T/C",[5],18.2%
same,"viability, T/C",[6],16.5%
same,"viability, T/C",[7],8.07%
same,"viability, T/C",[8],3%
same,"viability, T/C","second compound 0.316 µM, first compound 0.00316 µM",34.3%
same,"viability, T/C","second compound 0.316 µM, first compound 0.01 µM",29.1%
same,"viability, T/C",[9],16.8%
same,"viability, T/C",[10],13.8%
same,"viability, T/C",[11],6.27%
same,"viability, T/C",[12],1.02%
same,"viability, T/C","second compound 1 µM, first compound 0.00316 µM",34%
same,"viability, T/C","second compound 1 µM, first compound 0.01 µM",20.6%
same,"viability, T/C",[13],10.7%
same,"viability, T/C",[14],8.46%
same,"viability, T/C",[15],2.97%
same,"viability, T/C",[16],0.31%
same,"viability, T/C","second compound 3.16 µM, first compound 0.00316 µM",31.6%
same,"viability, T/C","second compound 3.16 µM, first compound 0.01 µM",16.2%
same,"viability, T/C",[17],12.2%
same,"viability, T/C",[18],6.75%
same,"viability, T/C",[19],4.2%
same,"viability, T/C",[20],0.54%
same,"viability, T/C","second compound 10 µM, first compound 0.00316 µM",29.3%
same,"viability, T/C","second compound 10 µM, first compound 0.01 µM",19.5%
same,"viability, T/C",[21],11.5%
same,"viability, T/C",[22],5.96%
same,"viability, T/C",[23],2.11%
same,"viability, T/C",[24],0.68%
Nc1ccn(C2OC(CO)C(O)C2(F)F)c(=O)n1 (stereo unspecified) + CNC(=O)c1ccc(Nc2nc(OC3CCCC3)c3c(-c4ccc5nc(C)oc5c4)c[nH]c3n2)c(OC)c1,IC50,second compound 0.0316 µM,< 31.6 nM
same,IC50,second compound 0.1 µM,< 31.6 nM
same,IC50,second compound 0.316 µM,< 31.6 nM
same,IC50,second compound 1 µM,< 31.6 nM
same,IC50,second compound 3.16 µM,< 31.6 nM
same,IC50,second compound 10 µM,< 31.6 nM
same,"viability, T/C",[1],21.3%
same,"viability, T/C",[2],9.39%
same,"viability, T/C",[3],10.4%
same,"viability, T/C",[4],12.7%
same,"viability, T/C",[25],10.1%
same,"viability, T/C",[26],7.91%
same,"viability, T/C",[5],25.7%
same,"viability, T/C",[6],7.76%
same,"viability, T/C",[7],9.74%
same,"viability, T/C",[8],9.84%
same,"viability, T/C",[27],9.52%
same,"viability, T/C",[28],7.25%
same,"viability, T/C",[9],25.4%
same,"viability, T/C",[10],8.69%
same,"viability, T/C",[11],7.46%
same,"viability, T/C",[12],11.1%
same,"viability, T/C",[29],8.56%
same,"viability, T/C",[30],6.75%
same,"viability, T/C",[13],29.1%
same,"viability, T/C",[14],8.29%
same,"viability, T/C",[15],5.33%
same,"viability, T/C",[16],7.16%
same,"viability, T/C",[31],6.13%
same,"viability, T/C",[32],8.82%
same,"viability, T/C",[17],19.2%
same,"viability, T/C",[18],6.89%
same,"viability, T/C",[19],6.64%
same,"viability, T/C",[20],7.3%
same,"viability, T/C",[33],6.33%
same,"viability, T/C",[34],4.72%
same,"viability, T/C",[21],18.2%
same,"viability, T/C",[22],9.83%
same,"viability, T/C",[23],3.87%
same,"viability, T/C",[24],5.96%
same,"viability, T/C",[35],4.8%
same,"viability, T/C",[36],3.11%
O=c1[nH]cc(F)c(=O)[nH]1 + CNC(=O)c1ccc(Nc2nc(OC3CCCC3)c3c(-c4ccc5nc(C)oc5c4)c[nH]c3n2)c(OC)c1,IC50,second compound 0.0316 µM,969 nM
same,IC50,second compound 0.1 µM,892 nM
same,IC50,second compound 0.316 µM,557 nM
same,IC50,second compound 1 µM,< 31.6 nM
same,IC50,second compound 3.16 µM,< 31.6 nM
same,IC50,second compound 10 µM,< 31.6 nM
same,"viability, T/C",[1],97.2%
same,"viability, T/C",[2],85.4%
same,"viability, T/C",[3],84.2%
same,"viability, T/C",[4],47.2%
same,"viability, T/C",[25],38.4%
same,"viability, T/C",[26],28%
same,"viability, T/C",[5],81.3%
same,"viability, T/C",[6],79.1%
same,"viability, T/C",[7],88%
same,"viability, T/C",[8],46.3%
same,"viability, T/C",[27],31%
same,"viability, T/C",[28],22%
same,"viability, T/C",[9],79.8%
same,"viability, T/C",[10],79.4%
same,"viability, T/C",[11],51.4%
same,"viability, T/C",[12],44.3%
same,"viability, T/C",[29],27.7%
same,"viability, T/C",[30],16.7%
same,"viability, T/C",[13],47.4%
same,"viability, T/C",[14],40.3%
same,"viability, T/C",[15],52.8%
same,"viability, T/C",[16],31.2%
same,"viability, T/C",[31],20.6%
same,"viability, T/C",[32],13.2%
same,"viability, T/C",[17],42.6%
same,"viability, T/C",[18],25%
same,"viability, T/C",[19],38.6%
same,"viability, T/C",[20],26.1%
same,"viability, T/C",[33],16.8%
same,"viability, T/C",[34],11.8%
same,"viability, T/C",[21],36.2%
same,"viability, T/C",[22],24.6%
same,"viability, T/C",[23],35.9%
same,"viability, T/C",[24],22.1%
same,"viability, T/C",[35],12.2%
same,"viability, T/C",[36],13.2%
